In BindingDB's records for patent US20250289812 (Shanghai Institute Of Materia Medica, 2025):

Target: T1, Proto-oncogene tyrosine-protein kinase Src [84-145] (UniProt P12931)
T1 construct: 84-145
Test: Surface Plasmon Resonance Experiment
Protocol: Experimental method: Surface plasmon resonance test was carried out on BIACORE T200 instrument (GE Company). Fresh purified grade Src kinase SH3 domain protein (concentration 2 mg/ml) was diluted to 0.1 mg/ml with 10 mM CH3COONa (pH 4.2) and then SH3 protein was coupled to the CM5 chip by standard amino coupling methods. The compounds of the invention were diluted in a gradient using a buffer solution (20 mM Tris-HCl, PH 8.0, 100 mM NaCl) for 60 seconds and dissociated for 120 seconds at a flow rate of […], respectively. The changes in response values over time were recorded and analyzed by the BIA Evaluation Software (GE Healthcare) program to obtain the dissociation constants KD for the different compounds with SH3 protein.

Compound | Kd [nM]
COc1cnc2c(c1)c(C(N)=O)c(CNC(=N)N)n2C [US20250289812, Example SYY-C036] | < 1000
CCOC(=O)c1c(CNC(=N)N)n(C)c2cc(C3CC4CCC3C4)ccc12 (configuration not stated) [US20250289812, Example SYY-C069] | < 1000
